Data: patent US20220218614A1, “IONIZABLE CATIONIC LIPIDS AND LIPID NANOPARTICLES, AND METHODS OF SYNTHESIS AND USE THEREOF” (Tidal Therapeutics, Inc., priority 2020, published 2022)
“And” between values parts separate entries of the source, which are not always exact repeats. Identical values can stand only once. “Also recorded” adds a separate entry of the source.

Key:
[1] = Quant-iT RiboGreen RNA assay: dye accessible and total (Triton) mRNA content, encapsulation; type: physicochemical
Protocol: RNA content of the nanoparticles is measured using Thermo Fisher Quant-iT RiboGreen RNA Assay Kit. Dye accessible RNA, which includes both non-incorporated RNA and RNA that is near the surface of the nanoparticle, is measured by diluting the nanoparticles to approximately 1 μg/mL mRNA using HEPES buffered saline, and then adding Quant-iT reagent to the mixture. Total RNA content is measured by diluting the particles to 1 μg/mL mRNA using HEPES buffered saline, disrupting the nanoparticles by heating them to 60° C. for 30 minutes in HEPES buffered saline containing 0.5% Triton, and then adding Quant-It reagent. RNA is quantified by measuring fluorescence at 485/535 nm, and concentration is determined relative to a contemporaneously run RNA standard curve.

[2] = system: primary human T-cells (CD3+ T cells); assay: In vitro LNP transfection of primary human T-cells (GFP, Cy5 or DiI, viability by FACS); type: cell-based; details: for GFP protein expression (% GFP+ cells, GFP MFI), in words: hSP34 targeted LNP with GFP mRNA; for GFP protein expression (% GFP+ cells, GFP MFI), in words / T-cell viability / tolerability, in words / LNP association with cells (% Cy5+/Cy5 MFI or % DiI+/DiI MFI), in words: 24 hours; for T-cell viability / tolerability, in words / LNP association with cells (% Cy5+/Cy5 MFI or % DiI+/DiI MFI), in words: hSP34 targeted LNP; for T-cell viability / tolerability, in words: dose as in the value; for T-cell viability (% live): PBS control about 50%
Description: This example describes the protocol used for in vitro LNP transfections in primary human T-cells. This method is used to assess LNP in vitro efficacy in relevant target cells (CD3+ T cells) by first transfecting the cells using LNPs loaded with mRNA encoding for a reporter gene, such as GFP mRNA, and then assessing transfection by measuring reporter gene expression by fluorescence-[…] cell sorting (FACS). Additionally, particle association with cells may be observed by in the same assay by labeling individual nanoparticle components, such as the mRNA, with a fluorescent dye, such as Cy5, and then observing cell/dye association by FACS.
CD3+ T cells were isolated from frozen peripheral blood mononuclear cells using an EasySep Human T Cell Isolation Kit on a RoboSep automated cell isolation system from […]. T cells were plated into a flat bottom 96-well plate in RPMI cell culture media supplemented with glutamax, 10% fetal bovine serum, and 40 ng/mL IL2. 100 μL of cell suspension was seeded per well at a density of 1M T cells/mL (100K T cells/well). Cells were allowed to rest for two hours in a 37° C. incubator, and then were transfected by gently adding 10 μL of a 22 μg/mL (by mRNA) nanoparticle suspension, resulting in a final mRNA concentration of 2 μg/mL. Cells were gently mixed with a pipette and then incubated for 24 hours in a 37° C. incubator. After incubation the cells were analyzed using an ThermoFisher Attune NXT flow cytometer. Cy5 was detected using a 638 nm laser with 670/14 nm filter. eGFP was detected using a 488 nm laser and a 530/30 nm filter. Data were analyzed using FlowJo software from BD biosciences. FACS data were first gated to exclude doublets and dead cells and then gated for GFP and Cy5. Gates for GFP+ and Cy5+were set such that a control sample (PBS treated T cells) was <0.1% positive.
CD3+ T cells were isolated from frozen peripheral blood mononuclear cells using an EasySep Human T Cell Isolation Kit on a RoboSep automated cell isolation system from […]. T cells were plated into a round bottom 96-well plate in RPMI cell culture media supplemented with glutamax, 10% fetal bovine serum, pen-strep, and 40 ng/mL IL-2. 100 μL of cell suspension was seeded per well at a density of 1M T cells/mL (100K T cells/well). Cells were allowed to rest for two hours in a 37° C. incubator, and then were transfected by gently adding 10 μL of a 22 μg/mL (by mRNA) nanoparticle suspension, resulting in a final mRNA concentration of 2 μg/mL (unless otherwise noted). Cells were gently mixed with a pipette and then incubated for 24 hours in a 37° C. incubator. After incubation the cells were diluted with FACS buffer (BD 554657) and analyzed using a BD Fortessa flow cytometer. Data were analyzed using FlowJo software from BD biosciences.

[3] = Apparent pKa of LNPs by TNS fluorescent probe; type: physicochemical; details: LNP made with the named ionizable lipid; pH at 50% of maximum TNS fluorescence
Description: This example describes the fluorescent dye based method used for measurement of the apparent pKa of the lipid nanoparticles. Apparent pKa determines the nanoparticle surface charge under physiological pH conditions, typically a pKa value in the endosomal pH range (6-7.4) results in LNPs that are neutral or slightly charged at plasma or the extracellular space (pH 7.4) and become strongly positive under acidic endosomal environments. This positive surface charge drives fusion of the LNP surface with negatively charged endosomal membranes resulting in destabilization and rupture of the endosomal compartment and LNP escape into the cytosolic compartment, a critical step in cytosolic delivery of mRNA and protein expression via engagement of the cells ribosomal machinery.
The apparent pKa of LNPs made using ionizable Lipids 2, 5 (synthesized as described in example 1), 6 and 7 (synthesized using method analogous to Lipid 2, 5, respectively, except using diethyl amine instead of dimethyl amine to incorporate the tertiary amine head group) were determined by 6-(p-Toluidino)-2-naphthalenesulfonic acid (TNS) fluorescence measurement in aqueous buffers covering a range of pH values (pH 4-pH 10). TNS is non-fluorescent when free in solution, but which fluoresces strongly when associated with a positively charged lipid nanoparticle. At a pH values below the pKa of the nanoparticle, positive LNP surface charge results in dye recruitment at the particle interface resulting in TNS fluorescence. At pH values above the LNP pKa no fluorescence is observed. The apparent pKa of the LNP is reported as the pH at which the fluorescence is at 50% of its maximum, as determined using a four-point logistic curve fit.

[4] = Hydrodynamic diameter and polydispersity of LNPs by dynamic light scattering (DLS), Zetasizer; type: physicochemical
Protocol: (§1) Samples of the LNPs produced in Example 2 were characterized to determine the average hydrodynamic diameter, zeta potential, and mRNA content (total and dye-accessible). The hydrodynamic diameter was determined by dynamic light scattering (DLS) using a Zetasizer model ZEN3600 (Malvern Pananalytical, UK). The zeta potential was measured in 5 mM pH 5.5 MES buffer and 5 mM pH 7.4 HEPES buffer by laser Doppler electrophoresis using the Zetasizer.

[5] = Zeta potential of LNPs by laser Doppler electrophoresis in 5 mM pH 5.5 MES and 5 mM pH 7.4 HEPES buffer; type: physicochemical; details: pH 5.5 MES and pH 7.4 HEPES buffer
Protocol: as §1

[6] = Table 25: Lipid 8 and Lipid 5 LNP, theoretical total mRNA 45 ug/mL
[7] = Table 11A: Lipid 5, Lipid 8 and DLn-MC3-DMA LNP, vortexer mixing, theoretical total mRNA 42.5 ug/mL
[8] = Table 11A: vortexer mixing, theoretical total mRNA 42.5 ug/mL
[9] = Table 10: Lipid 5 and Lipid 7 LNP, theoretical total mRNA 50 μg/mL

Compound | Measured total (Triton method) mRNA [1, 6] | Ribogreen Dye Accessible mRNA [1, 6] | GFP protein expression (% GFP+ cells, GFP MFI), in words [2] | T-cell viability / tolerability, in words [2] | other results
CCCCC/C=C\C/C=C\CCCCCCCC(=O)OC[C@H](CCN(C)C)OC(=O)CCCCCCC/C=C\C/C=C\CCCCC [Lipid 5 (N)] | 36 µg/mL | 7 µg/mL | – | – | –
CCCCC/C=C\C/C=C\CCCCCCCC(=O)OC[C@H](COC(=O)CCN(C)CCO)OC(=O)CCCCCCC/C=C\C/C=C\CCCCC [Lipid 12] | – | – | performed poorly | well tolerated by T-cells at all LNP doses tested | –
CCCCC/C=C\C/C=C\CCCCCCCC(=O)OC[C@H](CCN(C)C)OC(=O)CCCCCCC/C=C\C/C=C\CCCCC [Lipid 5 (O)] | 38 µg/mL | 7 µg/mL | – | – | –
CCCCC/C=C\C/C=C\CCCCCCCC(=O)OC[C@H](COC(=O)CCCN(C)C)OC(=O)CCCCCCC/C=C\C/C=C\CCCCC [Lipid 2] | – | – | – | well tolerated by T-cells at all LNP doses tested | apparent pKa of LNP (TNS) [3]: 7.5
CCCCC/C=C\C/C=C\CCCCCCCC(=O)OC[C@H](COC(=O)CCN(CCO)CCO)OC(=O)CCCCCCC/C=C\C/C=C\CCCCC [Lipid 13] | – | – | performed poorly | well tolerated by T-cells at all LNP doses tested | –
CCCCC/C=C\C/C=C\CCCCCCCCC(CCCCCCCC/C=C\C/C=C\CCCCC)OC(=O)CCCN(C)C [DLn-MC3-DMA, DLin-MC3-DMA, reference compound] | – | – | failed to express GFP protein | better tolerated at higher doses | polydispersity after antibody conjugate insertion [4]: 0.2; LNP surface charge (zeta potential), in words [5]: positive zeta potential at pH 5.5, and either near neutral or slightly negative charge at pH 7.4; Measured total (Triton method) mRNA [1, 7]: 33 µg/mL; Ribogreen Dye Accessible mRNA [1, 8]: 2 µg/mL
CCCCC/C=C\C/C=C\CCCCCCCC(=O)OCC(CCN(CC)CC)OC(=O)CCCCCCC/C=C\C/C=C\CCCCC (stereo not shown) [Lipid 7] | – | – | Dose dependent expression of GFP protein; also recorded: significantly lower level of GFP protein expression relative to Lipid 5 LNP formulation | well tolerated by T-cells at and below 0.5 μg/mL dose | % Dye Accessible mRNA ([1]; Table 10: Lipid 5 and Lipid 7 LNP): 14%; Measured total (Triton method) mRNA [1, 9]: 43 µg/mL; Ribogreen Dye Accessible mRNA [1, 9]: 6 µg/mL; apparent pKa of LNP (TNS) [3]: ~6.3 and ~6.4; LNP association with cells (% Cy5+/Cy5 MFI or % DiI+/DiI MFI), in words [2]: equally associated with cells
CCCCC/C=C\C/C=C\CCCCCCCCC1(CCCCCCCC/C=C\C/C=C\CCCCC)OCC(CCN(C)C)O1 (stereo not shown) [Lipid 8, reference compound] | 40 µg/mL | 4 µg/mL | Dose dependent expression of GFP protein | slightly lower viability at higher dose of 2 μg/mL; also recorded: dose dependent toxicity towards T-cells; also recorded: well tolerated by T-cells at and below 1.0 μg/mL dose | polydispersity after antibody conjugate insertion [4]: 0.2; LNP surface charge (zeta potential), in words [5]: positive zeta potential at pH 5.5, and either near neutral or slightly negative charge at pH 7.4; Measured total (Triton method) mRNA [1, 7]: 30 µg/mL; Ribogreen Dye Accessible mRNA [1, 8]: 3 µg/mL; T-cell viability (% live) ([2]; 0.125 ug mRNA/mL per well): about 45%; T-cell viability (% live) ([2]; 2 ug mRNA/mL per well): about 25%; LNP association with cells (% Cy5+/Cy5 MFI or % DiI+/DiI MFI), in words [2]: equally associated with cells
